Values quoted from earlier work as cited in patent publication US20180235992A1, “IMMUNOTHERAPIES FOR MALIGNANT, NEURODEGENERATIVE AND DEMYELINATING DISEASES BY THE USE OF TARGETED NANOCARRIERS” (RODOS BIOTARGET GMBH, priority 2015, published 2018).

Key:
[1] = tested on: multiple myeloma cell lines
[2] = tested on: human acute myelogenous leukemia cell line HL-60
[3] = tested on: Alzheimer's β-amyloid fibrils; settings: in vitro
[4] = tested on: human pancreatic cancer; settings: mouse, in vivo
[5] = tested on: pancreatic cancer model; settings: in vivo
[6] = tested on: Fibroblast Growth Factor-2-induced angiogenic response; settings: in-vivo
[7] = tested on: pancreatic cancer cells; settings: modulating miR-200 and miR-21 expression
[8] = tested on: squamous cell carcinoma head and neck cell lines
[9] = tested on: human vascular endothelial cells; settings: in vitro
[10] = tested on: human melanoma cells; settings: Fas Receptor/Caspase-8 pathway independent of p53
[11] = tested on: pancreatic cancer; settings: given intravenously, equal dose
[12] = tested on: mantle cell lymphoma

Molecule | expression of NF-κB, Bcl-2 and Bcl-XL [1] | apoptosis [2] | anti-amyloidogenic effects [3] | tumor growth and angiogenesis [4] | antitumor activity of gemcitabine [5] | angiogenic response [6] | gemcitabine sensitivity [7] | apoptosis [8] | proliferation [9] | apoptosis [10] | tumor weights and volumes [11] | proliferation and apoptosis [12]
COc1cc(/C=C/C(=O)CC(=O)/C=C/c2ccc(O)c(OC)c2)ccc1O [curcumin] | suppresses expression | induces apoptosis | potent anti-amyloidogenic effects | inhibits tumor growth and angiogenesis | potentiates the antitumor activity of gemcitabine | inhibits | induces gemcitabine sensitivity | induces apoptosis | suppresses the proliferation | induces apoptosis | failed to cause a significant reduction | suppress proliferation, and induce apoptosis
[DLys(6)]-LHRH-curcumin | – | – | – | – | – | – | – | – | – | – | caused a reduction in tumor weights and volumes | –
